The values that follow come from patent US6924300B2, “Oxyiminoalkanoic acid derivatives” (Takeda Chemical Industries, Ltd., priority 1998, dated 2005).

With `Cc1sc(-c2ccccc2)nc1COc1ccc(CO/N=C(\CCC(=O)O)c2ccccc2)cc1` [Example 91, E-4-[4-(5-methyl-2-phenyl-4-thiazolylmethoxy)benzyloxyimino]-4-phenylbutyric acid], the melting point (in general, the temperature of the solid-liquid transition) is 99 to 100 °C.
In turn, `COc1cc(CO/N=C(\CCC(=O)O)c2ccccc2)ccc1OCc1nc(-c2ccco2)oc1C` [Example 148, E-4-[4-[2-(2-furyl)-5-methyl-4-oxazolylmethoxy]-3-methoxybenzyloxyimino]-4-phenylbutyric acid] displayed a melting point of 131 to 132 °C.
In turn, `COC(=O)CC/C(=N\OCc1ccc(OCc2nc(-c3ccco3)oc2C)c(OC)c1)c1ccccc1` [Example 147, methyl E-4-[4-[2-(2-furyl)-5-methyl-4-oxazolylmethoxy]-3-methoxybenzyloxyimino]-4-phenylbutyrate] displayed a melting point of 67 to 69 °C.
The compound `Cc1oc(-c2ccccc2)nc1COc1ccc(CO/N=C(\CCCCC(=O)NS(C)(=O)=O)c2ccccc2)cc1` [Example 142, E-N-methanesulfonyl-6-[4-(5-methyl-2-phenyl-4-oxazolylmethoxy)benzyloxyimino]-6-phenylhexanamide] had a melting point of 130 to 132 °C.
For `Cc1oc(-c2ccccc2)nc1COc1ccc(CO/N=C(/C(=O)O)c2cccnc2)cc1` [Example 37, E-2-[4-(5-methyl-2-phenyl-4-oxazolylmethoxy)benzyloxyimino]-2-(3-pyridyl)acetic acid], the melting point is 130 to 131 °C (dec.).
The compound `COC(=O)CC/C(=N\OCc1ccc(OCCc2nc(-c3ccccc3)oc2C)cc1)c1ccccc1` [Example 48, methyl E-4-[4-[2-(5-methyl-2-phenyl-4-oxazolyl)ethoxy]benzyloxyimino]-4-phenylbutyrate] yielded a melting point of 73 to 74 °C.
For `Cc1oc(-c2ccccc2)nc1COc1ccc(CO/N=C(\C(=O)O)c2cccc(C(=O)c3ccccc3)c2)cc1` [Example 40, Z-2-(3-benzoylphenyl)-2-[4-(5-methyl-2-phenyl-4-oxazolylmethoxy)benzyloxyimino]acetic acid] the value was 185 to 186 °C (dec.).
For `Cc1oc(-c2ccccc2)nc1COc1ccc(CO/N=C(/C(=O)O)c2ccc(F)cc2)cc1` [Example 16, E-2-(4-fluorophenyl)-2-[4-(5-methyl-2-phenyl-4-oxazolylmethoxy)benzyloxyimino]acetic acid], the melting point is 150 to 151 °C (dec.).
With `O=C(O)CC/C(=N\OCc1ccc(OCc2cc(-c3ccccc3)on2)cc1)c1ccccc1` [Example 90, E-4-phenyl-4-[4-(5-phenyl-3-isoxazolylmethoxy)benzyloxyimino]butyric acid], the melting point lay in the range of 100 to 101 °C.
For `CCOC(=O)/C(=N\OCc1ccc(OCc2nc(-c3ccccc3)oc2C)cc1)c1ccc(OC)cc1` [Example 19, ethyl Z-2-(4-methoxyphenyl)-2-[4-(5-methyl-2-phenyl-4-oxazolylmethoxy)benzyloxyimino]acetate] the value was 102 to 103 °C; for `Cc1oc(-c2ccccc2)nc1CCOc1ccc(CO/N=C(\CCC(=O)O)c2ccccc2)cc1` [Example 50, E-4-[4-[2-(5-methyl-2-phenyl-4-oxazolyl)ethoxy]benzyloxyimino]-4-phenylbutyric acid], 106 to 107 °C; for `O=C(O)CC/C(=N\OCc1ccc(OCc2csc(-c3ccccc3)n2)cc1)c1ccccc1` [Example 108, E-4-phenyl-4-[4-(2-phenyl-4-thiazolylmethoxy)benzyloxyimino]butyric acid], 104 to 105 °C.
`Cc1oc(-c2cccs2)nc1COc1ccc(CO/N=C(\CCCCCCC(=O)O)c2ccccc2)cc1` [Example 130, E-8-[4-[5-methyl-2-(2-thienyl)-4-oxazolylmethoxy]benzyloxyimino]-8-phenyloctanoic acid] yielded a melting point of 106 to 108 °C.
For `COc1cc(CO/N=C(\CCC(=O)O)c2ccccc2)ccc1OCc1nc(-c2ccccc2)oc1C` [Example 150, E-4-[3-methoxy-4-(5-methyl-2-phenyl-4-oxazolylmethoxy)benzyloxyimino]-4-phenylbutyric acid] the value was 134 to 135 °C; for `Cc1oc(-c2ccccc2)nc1COc1cccc(CO/N=C(\CCCCC(=O)O)c2ccccc2)c1` [Example 76, E-6-[3-(5-methyl-2-phenyl-4-oxazolylmethoxy)benzyloxyimino]-6-phenylhexanoic acid], 114 to 115 °C; for `Cc1oc(-c2ccccc2)nc1COc1ccc(CO/N=C(\CCCCC(N)=O)c2ccccc2)cc1` [Example 82, E-6-[4-(5-methyl-2-phenyl-4-oxazolylmethoxy)benzyloxyimino]-6-phenylhexanamide], 95 to 96 °C.
`Cc1oc(-c2ccccc2)nc1COc1ccc(CO/N=C(\CCC(=O)O)c2ccc(Oc3ccccc3)cc2)cc1` [Example 47, E-4-[4-(5-methyl-2-phenyl-4-oxazolylmethoxy)benzyloxyimino]-4-(4-phenoxyphenyl)butyric acid] showed a melting point of 131 to 132 °C.
Consider `Cc1oc(-c2ccccc2)nc1COc1ccc(CO/N=C(\C(=O)O)c2ccc(/C=C/c3ccccc3)cc2)cc1` [Example 31, Z-2-[4-(5-methyl-2-phenyl-4-oxazolylmethoxy)benzyloxyimino]-2-[4-(E-2-phenylethenyl)phenyl]acetic acid], for which the melting point is 194 to 195 °C (dec.).
With `Cc1oc(-c2ccccc2)nc1COc1ccc(CO/N=C(\C(=O)O)c2cccc(Oc3ccccc3)c2)cc1` [Example 13, Z-2-[4-(5-methyl-2-phenyl-4-oxazolylmethoxy)benzyloxyimino]-2-(3-phenoxyphenyl)acetic acid], the melting point is 173 to 174 °C (dec.).
With `Cc1oc(-c2ccco2)nc1COc1ccc(CO/N=C(\CCCCC(=O)O)c2ccccc2)cc1` [Example 132, E-6-[4-[2-(2-furyl)-5-methyl-4-oxazolylmethoxy]benzyloxyimino]-6-phenylhexanoic acid], the melting point was in the range of 112 to 113 °C.
Regarding `Cc1oc(-c2ccccc2)nc1COc1ccc(CCCO/N=C(\C(=O)O)c2ccccc2)cc1` [Example 2, Z-2-[3-[4-(5-methyl-2-phenyl-4-oxazolylmethoxy)phenyl]propoxyimino]-2-phenylacetic acid], the melting point is 165 to 166 °C (dec.).
For `Cc1oc(-c2ccccc2)nc1COc1ccc(CO/N=C(\CCCCC(=O)O)c2ccccc2)cc1` [Example 60, E-6-[4-(5-methyl-2-phenyl-4-oxazolylmethoxy)benzyloxyimino]-6-phenylhexanoic acid] the value was 112 to 113 °C.
In turn, `Cc1oc(-c2ccccc2)nc1COc1ccc(CO/N=C(\CCCCCCCC(=O)O)c2ccccc2)cc1` [Example 73, E-9-[4-(5-methyl-2-phenyl-4-oxazolylmethoxy)benzyloxyimino]-9-phenylnonanoic acid] showed a melting point of 67 to 68 °C.
For `CN(CCOc1ccc(CO/N=C(\C(=O)O)c2ccccc2)cc1)c1ccccn1` [Example 3, Z-2-[4-[2-(methyl-2-pyridylamino)ethoxy]benzyloxyimino]-2-phenylacetic acid] the value was 93 to 94 °C.
Regarding `Cc1oc(-c2ccccc2)nc1COc1ccc(CON=C(CC(=O)O)c2ccccc2)cc1` [Example 53, 3-[4-(5-methyl-2-phenyl-4-oxazolylmethoxy)benzyloxyimino]-3-phenylpropionic acid], the melting point lay within 107 to 108 °C.
As to `Cc1oc(-c2ccccc2)nc1COc1ccc(CO/N=C(\C(=O)O)c2cccc(Br)c2)cc1` [Example 43, Z-2-(3-bromophenyl)-2-[4-(5-methyl-2-phenyl-4-oxazolylmethoxy)benzyloxyimino]acetic acid], the melting point is 181 to 182 °C (dec.).
On to `CCOC(=O)CC/C(=N\OCc1ccc(OCc2nc(-c3ccccc3)oc2C)cc1)c1ccc(Oc2ccccc2)cc1` [Example 46, ethyl E-4-[4-(5-methyl-2-phenyl-4-oxazolylmethoxy)benzyloxyimino]-4-(4-phenoxyphenyl)butyrate], for which the melting point was in the range of 118 to 119 °C.
`O=C(O)CC/C(=N\OCc1ccc(OCc2cc(-c3ccccc3)no2)cc1)c1ccccc1` [Example 87, E-4-phenyl-4-[4-(3-phenyl-5-isoxazolylmethoxy)benzyloxyimino]butyric acid] had a melting point of 96 to 97 °C.
As to `COC(=O)CC/C(=N\OCc1ccc(OCc2nc(-c3ccccc3)oc2C)c(OC)c1)c1ccccc1` [Example 149, methyl E-4-[3-methoxy-4-(5-methyl-2-phenyl-4-oxazolylmethoxy)benzyloxyimino]-4-phenylbutyrate], the melting point was 112 to 114 °C.
For the compound `Cc1oc(-c2ccco2)nc1COc1ccc(CO/N=C(\CCCCCCC(=O)O)c2ccccc2)cc1` [Example 129, E-8-[4-[2-(2-furyl)-5-methyl-4-oxazolylmethoxy]benzyloxyimino]-8-phenyloctanoic acid], the melting point was 75 to 77 °C.
`O=C(O)CCCCCC/C(=N\OCc1ccc(OCc2noc(-c3ccccc3)n2)cc1)c1ccccc1` [Example 128, E-8-phenyl-8-[4-(5-phenyl-1,2,4-oxadiazol-3-ylmethoxy)benzyloxyimino]octanoic acid]: the melting point lay within 76 to 77 °C.
Compound `Cc1oc(-c2ccccc2)nc1COc1ccc(CO/N=C(\CCCC(C)(C)C(=O)O)c2ccccc2)cc1` [Example 141, E-2,2-dimethyl-6-[4-(5-methyl-2-phenyl-4-oxazolylmethoxy)benzyloxyimino]-6-phenylhexanoic acid] registered a melting point of 111 to 112 °C.
`COc1ccc(/C(=N/OCc2ccc(OCc3nc(-c4ccccc4)oc3C)cc2)C(=O)O)cc1` [Example 24, Z-2-(4-methoxyphenyl)-2-[4-(5-methyl-2-phenyl-4-oxazolylmethoxy)benzyloxyimino]acetic acid] showed a melting point of 183 to 184 °C.
Compound `Cc1oc(-c2ccccc2)nc1COc1ccc(CO/N=C(\CCC(=O)O)c2ccco2)cc1` [Example 72, E-4-(2-furyl)-4-[4-(5-methyl-2-phenyl-4-oxazolylmethoxy)benzyloxyimino]butyric acid] displayed a melting point of 124 to 125 °C.
`Cc1oc(-c2ccccc2)nc1COc1ccc(CO/N=C(/CCC(=O)O)c2ccco2)cc1` [Example 68, Z-4-(2-furyl)-4-[4-(5-methyl-2-phenyl-4-oxazolylmethoxy)benzyloxyimino]butyric acid] had a melting point of 131 to 133 °C.
